These results are taken from patent publication US20230066011A1, “PYRROLOPYRIMIDINE DERIVATIVE, AND PHARMACEUTICAL COMPOSITION FOR PREVENTING OR TREATING PROTEIN KINASE-RELATED DISEASE COMPRISING SAME AS ACTIVE INGREDIENT” (VORONOI CO., LTD., priority 2019, published 2023).

One experiment concerns the target T1, human GST-CLK1 (Homo sapiens, UniProt P49759).
T1 construct: purified human GST-CLK1 (129-end, SignalChem) enzyme; purchased SignalChem
Nature of the experiment: GST-CLK1 enzyme inhibition, ADP-Glo kinase assay. It counts as biochemical. Conditions: ATP 10 μM, GST-CLK1 129-end. The method in brief:
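ADP-Glo luminescence read-out, relative to untreated solvent control, gave IC50 (nM) from triplicate data sets. Reactions ran an hour at 25° C with 3 ng GST-CLK1 (residues 129-end), 10 μM ATP and specific substrate in Tris-HCl pH 7.4 buffer with MgCl2, BSA and DTT.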

Another experiment deals with T2, human GST-DYRK1A (Homo sapiens, UniProt Q13627).
T2 construct: purified human GST-DYRK1A (full length, Thermo Scientifics) enzyme; purchased Thermo Scientifics
Nature of the experiment: GST-DYRK1A enzyme inhibition, ADP-Glo kinase assay. It counts as biochemical. Conditions: ATP 10 μM, GST-DYRK1A full length, read-out: DYRK1 IC50. The method in brief: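 Full-length enzyme (10 ng) was incubated with 10 μM ATP and a specific substrate for 1 h at 25 °C in 40 mM Tris-HCl pH 7.4, 20 mM MgCl2, 0.5 mg/mL BSA, 50 μM DTT. Luminescence was read against a solvent control, and IC50 values were derived from 3 data sets.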

A further experiment concerns human DYRK1A and tau. Nature of the experiment: Inhibition of tau phosphorylation, ClariCELL Kinase Cell-Based Assay, HEK 293 cells expressing human DYRK1A and tau. Conditions: for inhibition at 1 µM: HEK293, read-out: % inhibition at 1 uM, tau phosphorylation, compound 1 uM; for inhibition at 0.25 µM / inhibition at 0.5 µM: HEK293, tau phosphorylation; for inhibition at 0.25 µM: compound 0.25 uM; for inhibition at 0.5 µM: compound 0.5 uM. How it is done:
An inhibitory effect on tau phosphorylation was determined using the ClariCELL™ Kinase Cell-Based Assay service (commercially available from CamaBio USA, Inc.). Human embryonic kidney (HEK 293) cells temporarily expressing human DYRK1A and tau were exposed to the compound, and then lysed to release cell proteins. In this case, the released tau was captured on a plate, and a degree of phosphorylation was quantified by ELISA using a tau phosphorylation-specific antibody.

Another experiment addresses LRRK2 (Homo sapiens, UniProt Q5S007). Nature of the experiment: LRRK2 enzyme inhibition, ADP-Glo kinase assay. On the set-up: purchased Invitrogen PR8604B. It counts as biochemical. Conditions: ATP 10 μM. In a few lines:
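ADP-Glo luminescent read-out of ADP formed by purified human LRRK2 enzyme (25 ng), 10 μM ATP, 0.2 μg substrate, 25° C for 2 h, Tris-HCl pH 7.4 buffer with MgCl2, BSA, DTT. Inhibition versus untreated solvent control over twelve final concentrations (50 μM downward) gives IC50.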
(ADP-Glo first removes unused ATP, then detects ADP through luciferase.)

In another experiment the target is LRRK2 (G2019S) (Homo sapiens, UniProt Q5S007, G2019S). Nature of the experiment: LRRK2 G2019S enzyme inhibition, ADP-Glo kinase assay. It counts as biochemical. More on the design: purchased SignalChem L10-12GG. The following applies: ATP 25 μM. In a few lines:
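IC50 derived from luminescent ADP-Glo readout against untreated solvent control, twelve final compound concentrations from 50 μM downward. Reaction: recombinant human LRRK2 G2019S enzyme, 25 μM ATP, substrate, pH 7.4 Tris buffer with MgCl2/BSA/DTT, 25° C. for 2 hours.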

T1 sequence (P49759 129-484 limits assumed): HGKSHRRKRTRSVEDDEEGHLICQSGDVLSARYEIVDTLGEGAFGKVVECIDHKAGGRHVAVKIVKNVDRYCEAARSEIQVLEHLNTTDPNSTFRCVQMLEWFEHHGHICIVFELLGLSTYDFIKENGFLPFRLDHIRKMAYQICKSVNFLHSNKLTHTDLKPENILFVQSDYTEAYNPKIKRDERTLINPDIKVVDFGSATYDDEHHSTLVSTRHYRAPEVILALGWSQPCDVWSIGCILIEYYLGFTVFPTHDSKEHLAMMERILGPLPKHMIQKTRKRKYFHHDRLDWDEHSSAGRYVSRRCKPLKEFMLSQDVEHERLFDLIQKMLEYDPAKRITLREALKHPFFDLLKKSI
LRRK2 (G2019S), sequence (Q5S007 970-2527 G2019S limits assumed): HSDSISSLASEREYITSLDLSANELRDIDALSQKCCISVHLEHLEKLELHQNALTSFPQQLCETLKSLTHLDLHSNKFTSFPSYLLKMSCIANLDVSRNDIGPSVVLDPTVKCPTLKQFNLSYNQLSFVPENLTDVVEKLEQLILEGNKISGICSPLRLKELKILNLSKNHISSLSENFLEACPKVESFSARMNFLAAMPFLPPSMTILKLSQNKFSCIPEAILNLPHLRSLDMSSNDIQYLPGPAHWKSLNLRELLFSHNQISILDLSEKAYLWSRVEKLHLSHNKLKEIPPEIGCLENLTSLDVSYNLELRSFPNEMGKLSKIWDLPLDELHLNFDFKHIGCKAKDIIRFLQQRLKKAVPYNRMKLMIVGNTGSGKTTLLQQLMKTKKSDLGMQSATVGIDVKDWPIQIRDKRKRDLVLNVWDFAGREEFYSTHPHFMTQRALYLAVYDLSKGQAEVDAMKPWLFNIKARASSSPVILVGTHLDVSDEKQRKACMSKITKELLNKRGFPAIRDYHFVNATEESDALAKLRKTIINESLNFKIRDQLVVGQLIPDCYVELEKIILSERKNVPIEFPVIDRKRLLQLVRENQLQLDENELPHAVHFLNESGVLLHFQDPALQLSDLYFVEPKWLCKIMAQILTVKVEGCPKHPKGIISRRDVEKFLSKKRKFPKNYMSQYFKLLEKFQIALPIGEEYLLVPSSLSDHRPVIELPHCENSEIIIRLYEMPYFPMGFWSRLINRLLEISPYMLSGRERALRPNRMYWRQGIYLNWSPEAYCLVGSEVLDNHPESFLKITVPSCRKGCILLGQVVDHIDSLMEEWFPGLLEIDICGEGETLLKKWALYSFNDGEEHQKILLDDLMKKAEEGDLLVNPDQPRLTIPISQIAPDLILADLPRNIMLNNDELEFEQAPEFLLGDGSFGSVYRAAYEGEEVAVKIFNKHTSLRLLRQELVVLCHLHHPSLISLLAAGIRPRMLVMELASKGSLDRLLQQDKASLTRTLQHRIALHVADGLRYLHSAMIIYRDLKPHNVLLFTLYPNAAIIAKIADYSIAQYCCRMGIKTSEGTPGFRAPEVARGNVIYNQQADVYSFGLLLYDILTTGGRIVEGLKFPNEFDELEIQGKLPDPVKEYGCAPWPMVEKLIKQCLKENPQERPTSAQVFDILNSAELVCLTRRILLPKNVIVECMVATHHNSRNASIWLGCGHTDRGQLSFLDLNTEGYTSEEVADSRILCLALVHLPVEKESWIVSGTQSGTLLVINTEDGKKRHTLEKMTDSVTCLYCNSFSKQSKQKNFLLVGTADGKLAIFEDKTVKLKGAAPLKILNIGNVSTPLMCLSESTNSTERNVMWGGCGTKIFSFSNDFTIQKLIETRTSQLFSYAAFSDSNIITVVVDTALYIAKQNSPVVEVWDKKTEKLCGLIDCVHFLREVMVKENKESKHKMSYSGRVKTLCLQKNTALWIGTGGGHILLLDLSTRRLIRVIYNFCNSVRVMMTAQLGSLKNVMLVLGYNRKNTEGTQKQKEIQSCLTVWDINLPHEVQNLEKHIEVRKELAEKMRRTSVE
LRRK2, sequence (Q5S007 970-2527 limits assumed): as the sequence (Q5S007 970-2527 G2019S limits assumed) above, with S1050G counted along it

On to `CCNc1nc(Nc2ccc(C(=O)N3CC(CO)(CO)C3)c3c2OCCO3)nc2[nH]cc(C#N)c12` [Example 326, 2-((8-(3,3-bis(hydroxy-methyl)azetidine-1-carbonyl)-2,3-dihydrobenzo[b] [1,4]dioxin-5-yl)amino)-4-(ethylamino)-7H-pyrrolo[2,3-d]pyrimidine-5-carbonitrile], for which the concentration for half-maximal inhibition (IC50) at human GST-CLK1 was < 100 nM. The concentration for half-maximal inhibition (IC50) at human GST-DYRK1A fell in the range of 101 to 300 nM. Moreover, in the experiment on human DYRK1A and tau, the inhibition at 1 µM is -1.8%, the inhibition at 0.25 µM was -0.6% and the inhibition at 0.5 µM came out at 13.6%.

As for `CNc1nc(Nc2ccc(C(=O)N3CC(CO)(CO)C3)c3c2OCCO3)nc2[nH]cc(C#N)c12` [Example 325, 2-((8-(3,3-bis(hydroxy-methyl)azetidine-1-carbonyl)-2,3-dihydrobenzo[b] [1,4]dioxin-5-yl)amino)-4-(methylamino)-7H-pyrrolo[2,3-d]pyrimidine-5-carbonitrile], on human GST-CLK1, the IC50 was < 100 nM. Moreover, on human GST-DYRK1A, the IC50 lay in the range of 101 to 300 nM. In the experiment on human DYRK1A and tau, the inhibition at 1 µM worked out at 1.9%, the inhibition at 0.25 µM turned out to be 6.3% and the inhibition at 0.5 µM is 13.5%.

Regarding `N#Cc1c[nH]c2nc(Nc3ccc(C(=O)N4CCN(C5COC5)CC4)c4c3OCCO4)nc(NC3CCOCC3)c12` [Example 316, 2-((8-(4-(oxetan-3-yl)piperazine-1-carbonyl)-2,3-dihydrobenzo[b] [1,4]dioxin-5-yl)amino)-4-((tetrahydro-2H-pyran-4-yl)amino)-7H-pyrrolo[2,3-d]pyrimidine-5-carbonitrile], the IC50 against human GST-CLK1 was < 100 nM. The IC50 on human GST-DYRK1A lay in the range of 301 to 1000 nM. In the experiment with human DYRK1A and tau, the inhibition at 1 µM was 15.8%, the inhibition at 0.25 µM is 2.3% and the inhibition at 0.5 µM amounted to 8.3%.

`N#Cc1c[nH]c2nc(Nc3ccc(C(=O)N4CCN(C5COC5)CC4)c4c3OCCO4)nc(N[C@H]3CCOC3)c12` [Example 315, (S)-2-((8-(4-(oxetan-3-yl)piperazine-1-carbonyl)-2,3-dihydrobenzo[b] [1,4]dioxin-5-yl)amino)-4-((tetrahydrofuran-3-yl)amino)-7H-pyrrolo[2,3-d]pyrimidine-5-carbonitrile]: on human GST-CLK1, the IC50 was < 100 nM. The IC50 at human GST-DYRK1A lay within 301 to 1000 nM. In the experiment with human DYRK1A and tau, the inhibition at 1 µM is 16.6%, the inhibition at 0.25 µM was -1.8% and the inhibition at 0.5 µM came out at 8.4%.

As for `CCNc1nc(Nc2ccc(C(=O)N3CCOCC3)c3c2OCCO3)nc2[nH]cc(C(F)(F)F)c12` [Example 156, (8-((4-(ethylamino)-5-(trifluoromethyl)-7H-pyrrolo[2,3-d]pyrimidin-2-yl)amino)-2,3-dihydrobenzo[b][1,4]dioxin-5-yl)(morpholino)methanone 2,2,2-trifluoroacetate], the IC50 was < 100 nM on LRRK2, < 100 nM against human GST-CLK1, 101 to 300 nM at human GST-DYRK1A and < 100 nM on LRRK2 (G2019S).

For the compound `N#Cc1c[nH]c2nc(Nc3ccc(C(=O)N4CCC(N5CCOCC5)CC4)c4c3OCCO4)nc(NC3CCC3)c12` [Example 259, 4-(cyclobutylamino)-2-((8-(4-morpholinopiperidine-1-carbonyl)-2,3-dihydrobenzo[b][1,4]dioxin-5-yl)amino)-7H-pyrrolo[2,3-d]pyrimidine-5-carbonitrile], the concentration for half-maximal inhibition (IC50) at LRRK2 is < 100 nM; at human GST-CLK1, < 100 nM; on human GST-DYRK1A, 101 to 300 nM; on LRRK2 (G2019S) it was < 100 nM.

For `C=CCNc1nc(Nc2ccc(S(=O)(=O)N3CCOCC3)cc2OC)nc2[nH]ccc12` [Example 246, N4-allyl-N2-(2-methoxy-4-(morpholinosulfonyl)phenyl)-7H-pyrrolo[2,3-d]pyrimidine-2,4-diamine], the IC50 was < 100 nM at LRRK2, 301 to 1000 nM at human GST-CLK1, 301 to 1000 nM on human GST-DYRK1A and < 100 nM at LRRK2 (G2019S).

On to `COCCNc1nc(Nc2ccc(S(=O)(=O)N3CCOCC3)cc2OC)nc2[nH]ccc12` [Example 19, N^2-(2-methoxy-4-(morpholinosulfonyl)phenyl)-N^4-(2-methoxyethyl)-7H-pyrrolo[2,3-d]pyrimidine-2,4-diamine], for which the IC50 was < 100 nM on LRRK2, 301 to 1000 nM on human GST-CLK1, 301 to 1000 nM at human GST-DYRK1A and < 100 nM against LRRK2 (G2019S).

In general, IC50 refers to the concentration that gives 50% inhibition. In general, inhibition refers to the change of the read-out against control, counted positive when it falls.
